In patent publication US11167039B2, “MET antibody drug conjugates” (priority 2016, dated 2021):

Experiments:
HT-29 cells [1] = conditions: Strickler, J. H., et al., read-out: EC50 in a HT-29 killing assay; cited from earlier work
[2] = system: MET expressing tumor cells; conditions: reported, Strickler et al. 2016; cited from earlier work
[3] = system: HT-29 colon cancer tumor xenografts; experiment: HT-29 mouse xenograft model; format: in vivo; conditions: separate experiment(s), data not shown
Description: Female athymic nude mice age 6- to 7-weeks old are available commercially, including from Harlan Laboratories (Indianapolis, Ind.). The mice are allowed to acclimate for one week and fed ad libitum on a normal low fat (4.5%) diet, which may be continued for the duration of the study. Tumor cells may be purchased from ATCC and may be cultured in cell culture media such as RPMI 1640 (Life Technologies) with L-glutamine, 25 mM HEPES supplemented with 10% FBS and 1 mM Na Pyruvate. Cells may be detached, washed with serum free medium and then resuspended at a final concentration of 50×10^6 cells/mL in serum free RPMI 1640. Tumor cells, approximately 5×10^6, may be injected subcutaneously in the rear flank of subject mice in a 1:1 mixture of serum free growth medium and Matrigel (Becton Dickinson, Bedford, Mass.). Tumor and body weight measurements may be performed twice weekly. Prior to treatment, mice can be randomized based on tumor size using a randomization algorithm. Treatments may be started when the average tumor volume reaches 100 mm^3. […]
MET-ADCs and control hIgG4-MMAE may be prepared in Phosphate Buffered Saline (PBS) prior to dose. Tumor size may be determined by caliper measurements. […] Tumor volume data can be transformed to a log scale to equalize variance across time and treatment groups. Log volume data can be analyzed with two-way repeated measures ANOVA by time and treatment using SAS PROC MIXED software (SAS Institutes Inc, Cary, N.C.). Treatment groups are compared with the specified control group at each time point.

HT-29 cells [4] = experiment: HT-29 cell-killing assay; format: cell-based, human; conditions: HT-29 cells
Description: Therefore, the HT-29 cell line may be used to determine if test MET-ADCs can kill MET overexpressing tumor cells in vitro.
Briefly described, 2-3×10^3 cells/well in 100 μL of culture medium may be plated in 96 well plates and incubated overnight at 37° C., 5% CO2. The MET-ADCs, MET antibody(ies), control MMAE or control hIgG4 conjugated to MMAE with cysteine conjugation antibody(ies) may be diluted 1:3 in serum-free culture medium starting from 100 nM (final) in 50 μL as 3× concentrations to the HT-29 cells. At the end of an additional 5-6 days of cell growth at 37° C. in a humidified incubator with 5% CO2, the plates may be equilibrated to room temperature for 30 minutes and 100 μL/well of CellTiter-Glo® reagent (Promega Corp., Fitchburg, Wis.) may then be added to assess cell viability. Cell viability may be determined by measuring luminescence.
Various tumor cell lines and normal human cells may be tested for MET-ADC induced cell killing activity essentially as described above in Example 10 as assessed for MET receptor density. MET cell surface density was determined by indirect immunofluorescence staining of cell surface antigens on cultured cells using QIFIKIT (Dako). […] Following a forty-five minute incubation, cells may be incubated for 1 hour on ice with FITC conjugated antibody diluted 1:50 in FACS buffer. Then cells may be washed and receptor numbers may be determined by indirect immunofluorescence staining of the QIFIKIT beads using a Becton Dickinson LSRII flow cytometer.

[5] = system: pan-AKT phosphorylation (pAKT) in Caki-1 cells; experiment: Phosphor-AKT bioassay for MET agonist activity in Caki-1 cells; format: cell-based; conditions: 5 μg/mL
Description: Because it has been reported that MET agonistic antibodies increased hepatocyte proliferation and toxicity, a phosphor-AKT assay may be used to test MET-ADCs for MET agonist activity. Briefly stated, Caki-1 cells may be starved overnight in serum-free medium with 0.1% BSA and then treated with ADCs or naked MET antibodies at 5 μg/mL for the desired durations. Cell lysates may be analyzed for phosphorylation of pan-AKT by MSD ELISA, for example.

Row | Substance | EC50 (HT-29 cells [1]) [nM] | approximate threshold of MET cell surface molecules for sensitivity [2] | inhibition of HT-29 tumor growth [3] | cell killing activity in HT-29 cells (HT-29 cells [4]) | MET agonist activity (induction of pan-AKT phosphorylation) [5]
1 | ABBV-399 | 9 | > 100,000 | – | – | –
2 | Emibetuzumab | – | – | did not inhibit HT-29 tumor growth | no significant cell killing activity | low to no agonist activity
3 | MET-ADC #6: emibetuzumab conjugated with maleimidocaproyl-valine-citrulline-p-aminobenzoyloxycarbonyl-monomethyl auristatin E (Mal-C-vc-PABC-MMAE) | – | – | – | less active than MET-ADC #1 | significant increased agonist activity
